Where “and” joins values, the source holds several entries; their conditions need not be identical. Equal values may be shown once. Read-outs that look alike come from different tables or passages of the source.
Test: Pharmacokinetics study after separate oral administration in rats (HPLC-MS of plasma)
Format: in vivo, Sprague-Dawley rats
Conditions: for half-life: read-out: t1/2z
Method: A total of 15 SPF Sprague-Dawley rats (SD, male, 190–210 g) were provided by Sino-British Sippr/BK Lab Animal Company Ltd. (Shanghai, China). The rats were kept in standard conditions (22–26 °C; 40–60% relative humidity; 12 h light/dark cycle). Throughout the rearing period, the animals had access to food and water ad libitum. Animal experiments were conducted in accordance with the standard ethical guidelines of the Laboratory Animal Management Committee of Jiangsu Province (SYXK (SU) 2016-0011).
Following 1 week of adaptation, the rats were fasted for about 12 h before dosing, with free access to water. […] After administration of the first dose, blood samples were taken from the retro-orbital vein at 0, 5, 15, 30, 60, 90, 120, 180, 240, 360, 480, and 1,440 min and collected in heparinized tubes. The samples were centrifuged at 3,500 rpm for 10 min at 4 °C and the plasma was stored at −80 °C until analysis.
An Agilent 1,200 series HPLC system (Agilent Technologies, Waldbronn, Germany) equipped with a quaternary pump on-line degasser, auto-sampler and column oven, and an SL G1946D quadruple mass spectrometer (Agilent Technologies, Santa Clara, CA, USA) equipped with an electrospray ionization (ESI) source, were used for separation and detection. Data were acquired and analyzed using Agilent ChemStation Software Version A.01.00 (Agilent Technologies, Santa Clara, CA, USA).
The separation was carried out with an Amethyst C18-H column (150 × 4.6 mm, 5 μm, Sepax Technologies, Newark, DE, USA) with a guard column SB-C18 (10 × 4.6 mm, 5 μm, Phenomenex Technologies, Torrance, USA) at a constant temperature of 25 °C.
The mass spectra were acquired using ESI interfaced to a single quadrupole mass spectrometer. The ionization conditions were as follows: drying gas (N2) flow rate of 11 L/min, drying gas temperature of 350 °C, nebulizing gas (N2) pressure of 35 psi, capillary voltage of 3,500 V, quad temperature of 100 °C, and fragment voltage of 110 V. A series of m/z were monitored using a timed program according to the retention times and characteristic ions for the corresponding HPLC-MS peak obtained by scanning from m/z 100–1,000 in the standard sample.
Briefly, an aliquot of plasma sample (100 μL) was spiked with 5% formic acid (10 μL) in centrifuge tube. Subsequently, hydrochloric acid (2 mol/L, 10 μL) and IS solution (960.00 ng/mL, 20 μL) were added. Then ethyl acetate/n-butyl alcohol (1:1 v/v; 1,000 μL) was used to extract the components. The samples were then homogenized by vortex mixing and centrifuged for 10 min at 14,000 rpm. After centrifugation, 800 μL of supernatant was transferred to another centrifuge tube and the sample was evaporated to dryness. The residues were dissolved in 100 μL of methanol and centrifuged for 10 min at 12,000 rpm. 50 μL of the supernatant was transferred to the vial and an aliquot of 5 μL was injected into the HPLC-MS system for analysis.
DAS 2.0 (Chinese Pharmacological Association, Shanghai, China) was used to calculate the pharmacokinetic parameters using the non-compartment model, including the area under curve (AUC), mean residence time (MRT), half-life ( t1/2z), clearance rate (CL), maximum plasma concentration (Cmax), and time (Tmax). All results are expressed as mean ± standard deviation (SD). One way analysis of variance followed by […] was used for comparison of different groups using Graph pad prism 5 software. A p-value of <0.05 was considered statistically significant.

[1] = IQ group (oral IQ 50 mg/kg), rat plasma, labelled substance = analyte, individual rats No1-No5

O=c1c(O[C@@H]2O[C@H](CO)[C@@H](O)[C@H](O)[C@H]2O)c(-c2ccc(O)c(O)c2)oc2cc(O)cc(O)c12 [IQ, Isoquercitrin]
Plasma concentrations (IQ group (oral IQ 50 mg/kg), 5 min, individual rats NO. 1-5): 0.0934 µg/mL and 0.0774 µg/mL and 0.0493 µg/mL and 0.0335 µg/mL and 0.1108 µg/mL | Plasma concentrations (IQ group (oral IQ 50 mg/kg), 15 min, individual rats NO. 1-5): 0.3981 µg/mL and 0.2105 µg/mL and 0.1113 µg/mL and 0.0464 µg/mL and 0.3803 µg/mL | Plasma concentrations (IQ group (oral IQ 50 mg/kg), 30 min, individual rats NO. 1-5): 0.3658 µg/mL and 0.4136 µg/mL and 0.1507 µg/mL and 0.3866 µg/mL and 0.3886 µg/mL | Plasma concentrations (IQ group (oral IQ 50 mg/kg), 60 min, individual rats NO. 1-5): 0.1335 µg/mL and 0.1563 µg/mL and 0.1140 µg/mL and 0.0299 µg/mL and 0.2027 µg/mL | Plasma concentrations (IQ group (oral IQ 50 mg/kg), 90 min, individual rats NO. 1-5): 0.0372 µg/mL and 0.1114 µg/mL and 0.0310 µg/mL and 0.0260 µg/mL and 0.1543 µg/mL | Plasma concentrations (IQ group (oral IQ 50 mg/kg), 120 min, individual rats NO. 1-5): 0.0000 μg/mL (3×) and 0.0534 μg/mL and 0.0884 μg/mL | Plasma concentrations (IQ group (oral IQ 50 mg/kg), 180 min, individual rats NO. 1-5): 0.0000 µg/mL | Plasma concentrations (IQ group (oral IQ 50 mg/kg), 240 min, individual rats NO. 1-5): 0.0000 µg/mL | Plasma concentrations (IQ group (oral IQ 50 mg/kg), 360 min, individual rats NO. 1-5): 0.0000 µg/mL | Plasma concentrations (IQ group (oral IQ 50 mg/kg), 480 min, individual rats NO. 1-5): 0.0000 µg/mL | Plasma concentrations (IQ group (oral IQ 50 mg/kg), 1440 min, individual rats NO. 1-5): 0.0000 µg/mL | AUC(0-t) [1]: 307.8 ng·h/mL and 355.8 ng·h/mL and 150.6 ng·h/mL and 180.27 ng·h/mL and 439.42 ng·h/mL | CLz/F [1]: 2565 mL/min/kg and 2104 mL/min/kg and 4792 mL/min/kg and 3572 mL/min/kg and 1528 mL/min/kg | Cmax [1]: 398.1 ng/mL and 413.6 ng/mL and 150.7 ng/mL and 386.6 ng/mL and 388.6 ng/mL | MRT(0-t) [1]: 46.827 min and 41.112 min and 33.266 min and 48.488 min | Tmax [1]: 30 min | t1/2z [1]: 18.181 min and 30.631 min and 26.313 min and 87.922 min and 49.884 min | Detection in rat plasma (IQ group: oral IQ 50 mg/kg): could be detected in rat plasma | Time until which the AUC could be accessed (IQ group: oral IQ 50 mg/kg): 90 to 120 min | CL (IQ group: oral IQ 50 mg/kg, rat plasma, mean ± SD, n = 5): 2910 ± 1290 mL/min/kg | concentration at 180 min (male, Sprague-Dawley, rat, plasma, oral, 50 mg/kg, IQ group (oral IQ 50 mg/kg), 180 min, individual rats NO. 1-5, read-out: Plasma concentrations): 0 ng/mL | concentration at 240 min (male, Sprague-Dawley, rat, plasma, oral, 50 mg/kg, IQ group (oral IQ 50 mg/kg), 240 min, individual rats NO. 1-5, read-out: Plasma concentrations): 0 ng/mL | concentration at 360 min (male, Sprague-Dawley, rat, plasma, oral, 50 mg/kg, IQ group (oral IQ 50 mg/kg), 360 min, individual rats NO. 1-5, read-out: Plasma concentrations): 0 ng/mL | concentration at 480 min (male, Sprague-Dawley, rat, plasma, oral, 50 mg/kg, IQ group (oral IQ 50 mg/kg), 480 min, individual rats NO. 1-5, read-out: Plasma concentrations): 0 ng/mL | concentration at 1440 min (male, Sprague-Dawley, rat, plasma, oral, 50 mg/kg, IQ group (oral IQ 50 mg/kg), 1440 min, individual rats NO. 1-5, read-out: Plasma concentrations): 0 ng/mL | MRT last (male, Sprague-Dawley, rat, plasma, po, 50 mg/kg, IQ group (oral IQ 50 mg/kg), rat plasma, labelled substance = analyte, individual rats No1-No5, read-out: MRT(0-t) (converted)): 33.3 min | Tmax (male, Sprague-Dawley, rat, plasma, po, 50 mg/kg, IQ group (oral IQ 50 mg/kg), rat plasma, labelled substance = analyte, individual rats No1-No5, read-out: Tmax (converted)): 15 min | AUC(0-t) (male, Sprague-Dawley, rat, plasma, po, 50 mg/kg, IQ group (oral IQ 50 mg/kg), rat plasma, labelled substance = analyte, mean of 5 rats, read-out: AUC(0-t) (converted)): 287 ng·h/mL | CL/F (male, Sprague-Dawley, rat, plasma, po, 50 mg/kg, IQ group (oral IQ 50 mg/kg), rat plasma, labelled substance = analyte, mean of 5 rats, read-out: CLz/F): 2910 mL/min/kg | Cmax (male, Sprague-Dawley, rat, plasma, po, 50 mg/kg, IQ group (oral IQ 50 mg/kg), rat plasma, labelled substance = analyte, mean of 5 rats, read-out: Cmax): 348 ng/mL | MRT last (male, Sprague-Dawley, rat, plasma, po, 50 mg/kg, IQ group (oral IQ 50 mg/kg), rat plasma, labelled substance = analyte, mean of 5 rats, read-out: MRT(0-t) (converted)): 40.6 min | Tmax (male, Sprague-Dawley, rat, plasma, po, 50 mg/kg, IQ group (oral IQ 50 mg/kg), rat plasma, labelled substance = analyte, mean of 5 rats, read-out: Tmax (converted)): 27 min | half-life (male, Sprague-Dawley, rat, plasma, po, 50 mg/kg, IQ group (oral IQ 50 mg/kg), rat plasma, labelled substance = analyte, mean of 5 rats): 42.6 min | AUC(0-t) (male, Sprague-Dawley, rat, plasma, po, 50 mg/kg, IQ group: oral IQ 50 mg/kg, rat plasma, mean ± SD, n = 5, read-out: AUC0−t (converted)): 287 ng·h/mL | Cmax (male, Sprague-Dawley, rat, plasma, po, 50 mg/kg, IQ group: oral IQ 50 mg/kg, rat plasma, mean ± SD, n = 5, read-out: Cmax): 350 ± 110 ng/mL | MRT last (male, Sprague-Dawley, rat, plasma, po, 50 mg/kg, IQ group: oral IQ 50 mg/kg, rat plasma, mean ± SD, n = 5, read-out: MRT0−t (converted)): 40.6 min | Tmax (male, Sprague-Dawley, rat, plasma, po, 50 mg/kg, IQ group: oral IQ 50 mg/kg, rat plasma, mean ± SD, n = 5, read-out: Tmax (converted)): 27 min | half-life (male, Sprague-Dawley, rat, plasma, po, 50 mg/kg, IQ group: oral IQ 50 mg/kg, rat plasma, mean ± SD, n = 5): 42.6 ± 27.9 min

From paper PMC6440464 (PeerJ, 2019)
